Test results as given in PMC4039038 (Journal of immunology (Baltimore, Md. : 1950), 2011).

Tests used:
[1] = tested on: ERAP1 alleles (Ref, K528R, Q730E); assay: LAMC hydrolysis, all three ERAP1 alleles; assay type: biochemical, human; conditions: no activating peptide; 25°C, up to 10 min
ERAP1 K528R [2] = assay: LAMC hydrolysis, ERAP1 K528R; assay type: biochemical, human; conditions: no activating peptide, 25°C, up to 10 min
[3] = tested on: ERAP1 alleles (Ref, K528R, Q730E); assay: LAMC trimming in the presence of SIINFEKL, all three ERAP1 alleles; assay type: biochemical, human; conditions: 100 μM SIINFEKL
ERAP1 K528R [4] = assay: Activation of LAMC trimming by SIINFEKL, ERAP1 K528R; assay type: biochemical, human; conditions: 100 μM SIINFEKL, 25°C, up to 10 min
ERAP1 Q730E = assay: Activation of LAMC trimming by SIINFEKL, ERAP1 Q730E; assay type: biochemical, human; conditions: 100 μM SIINFEKL, 25°C, up to 10 min
ERAP1 = conditions: 8mer peptide; ref [3]; cited from earlier work
ERAP1 K528R (528R) = ERAP1 K528R (528R) (Homo sapiens, UniProt Q9NZ08, K528R); assay: Michaelis–Menten kinetics of antigenic peptide precursor trimming, ERAP1 K528R; assay type: biochemical
ERAP1 Q730E (730E) [5] = molecular target: ERAP1 Q730E (730E) (Homo sapiens, UniProt Q9NZ08, Q730E); assay: Michaelis–Menten kinetics of antigenic peptide precursor trimming, ERAP1 Q730E; assay type: biochemical; conditions: 730E allele; classical MM model; initial trimming rates, reactions limited to 10 min, 25°C
ERAP1 Q730E (730E) [6] = assay: as above; assay type: biochemical, human; conditions: low substrate concentrations (kcat/KM); Q730E vs Ref and K528R
ERAP1 Q730E (rs27044) = ERAP1 Q730E (rs27044) (human, UniProt Q9NZ08-2 1-948, Q730E); assay: enzyme kinetics
[7] = molecular target: endoplasmic reticulum aminopeptidase 1 (ERAP1), ancestral reference sequence NP_057526 (human, UniProt Q9NZ08-2 1-948); assay: enzyme kinetics
[8] = 528R allele, classical MM model, initial trimming rates, reactions limited to 10 min, 25°C

Question: With `Cc1cc(=O)oc2cc(NC(=O)[C@@H](N)CC(C)C)ccc12` [LAMC, L-leucine-7-amido-4-methyl coumarin] as the molecule, how does the “hydrolysis of LAMC by all three variants” value [1] read?
Answer: enzymatically active

Question: And the “fold less active of ERAP1 K528R in LAMC hydrolysis” value (ERAP1 K528R [2])?
Answer: ~ 4 fold

Question: And the “trimming activity of all three alleles toward LAMC in the presence of SIINFEKL” value ([3]; comparison between the three alleles)?
Answer: comparable trimming activity

Question: With SIINFEKL as the molecule, how does the “magnitude of activation of LAMC trimming” value (ERAP1 K528R [4]) read?
Answer: 4 fold

Question: And the “magnitude of activation of LAMC trimming” value (ERAP1 Q730E)?
Answer: 1.6 fold

Question: What about the “ERAP1-mediated hydrolysis of LAMC in the presence of SIINFEKL” value [3] of the same molecule?
Answer: enhanced

Question: What about the “substrate quality for ERAP1” value (ERAP1) of the same molecule?
Answer: poor substrate

Question: Which results are given for LATFPDTLTY?
Answer: Km (ERAP1 K528R (528R); [8]): 49 ± 13 µM; kcat (ERAP1 K528R (528R); [8]): 3.09 ± 0.203 s^–1; kcat/KM (ERAP1 K528R (528R); [8]): 63 ± 17 × 10^3 s^–1 M^–1; processing rate by the K528R allele relative to other alleles (ERAP1 K528R (528R); saturating conditions (kcat controls trimming rates)): twice as quickly; Km (ERAP1 Q730E (730E) [5]): 45 ± 11 µM; kcat (ERAP1 Q730E (730E) [5]): 1.635 ± 0.10 s^–1; kcat/KM (ERAP1 Q730E (730E) [5]): 36 ± 9 × 10^3 s^–1 M^–1; processing rate, fold more slowly by Q730E than by the other two alleles (ERAP1 Q730E (730E) [6]): 2 fold

Question: With LKRVVINKDT [LKRVVINKDT, single-amino acid extended precursor of the HLA-B27 ligand KRVVINKDT] as the molecule, how does the Ki (ERAP1 Q730E (rs27044)) read?
Answer: 132 ± 53 µM

Question: For YKRFEGLTQR [YKRFEGLTQR, single-amino acid extended precursor of the HLA-B27 ligand KRFEGLTQR], which Ki [7] is on record?
Answer: 394 ± 133 µM
